One experiment relates to human STAT6. Kind of experiment: Human STAT6 dependent reporter activity (IL-4 stimulated STAT6 reporter assay using STAT6-HEK293 cells). The class given is cell-based. The conditions noted are these: Homo sapiens, IL-4 stimulation, luciferase activity, read-out: Inhibition rate (%); for inhibition at 0.1 µM: compound 0.1 μmol/L; for inhibition at 1 µM: compound 1 μmol/L. For orientation: In a reporter assay the amount or activity of a reporter protein is the signal.

Another experiment concerns the target T1, human STAT6/pIL-4Rα (Homo sapiens, UniProt P42226).
T1 construct: histidine tag
T1 sequence (P42226 123-658): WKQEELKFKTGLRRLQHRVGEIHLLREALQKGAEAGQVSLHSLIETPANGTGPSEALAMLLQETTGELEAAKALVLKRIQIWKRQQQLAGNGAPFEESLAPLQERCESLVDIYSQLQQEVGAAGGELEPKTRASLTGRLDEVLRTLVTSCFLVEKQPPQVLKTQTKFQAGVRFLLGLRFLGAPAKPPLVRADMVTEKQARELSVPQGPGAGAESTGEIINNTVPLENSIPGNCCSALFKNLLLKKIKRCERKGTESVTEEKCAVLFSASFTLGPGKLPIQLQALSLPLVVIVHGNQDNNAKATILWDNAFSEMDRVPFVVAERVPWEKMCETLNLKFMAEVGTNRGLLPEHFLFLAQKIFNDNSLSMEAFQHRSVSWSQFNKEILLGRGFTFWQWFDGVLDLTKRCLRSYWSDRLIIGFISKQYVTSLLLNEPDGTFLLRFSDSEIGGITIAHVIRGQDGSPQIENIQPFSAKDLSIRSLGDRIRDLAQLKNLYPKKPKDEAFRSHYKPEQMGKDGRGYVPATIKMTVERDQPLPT
Kind of experiment: Binding inhibitory activity between human STAT6/pIL-4Rα by fluorescence polarization method. As to conditions: rhSTAT6 (123-658) / FAM-pIL-4Rα peptide. The method in brief:
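His-tagged human STAT6 (residues 123–658, E. coli-expressed) was preincubated with compound for 30 min at RT in the dark, in buffer e.g. 50 mM NaCl, 10 mM HEPES pH 7.0, 1 mM DTT, 1 mM EDTA, 0.01% NP-40. FAM-pIL-4Rα peptide was then added for 30 min. Fluorescence polarisation was read at 485/535 nm, with IC50 interpolated linearly between two points flanking 50%.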
On the technique in general: Polarisation of emitted light reports the rotation of a fluorescent probe.

With `COCCn1c(-c2ccc(-n3c(C)nn(C)c3=O)cc2)cc2ccnc(C(=O)Nc3cccc(C(=O)Nc4cccn(C)c4=O)c3)c21` [Ex. 196], in the experiment on human STAT6, the inhibition (as a rule, the share of the control response that was lost under treatment) at 0.1 µM is 81%. For the same compound, the IC50 (as a rule, the concentration needed to halve the response being measured) on human STAT6/pIL-4Rα is 270 nM.

Take `COCCn1c(-c2ccc(-n3c(C)nn(C)c3=O)cc2)cc2ccnc(C(=O)Nc3cccc(C(=O)Nc4cccc(OC)n4)c3)c21` [Ex. 197]: the inhibition at 0.1 µM in the experiment on human STAT6 was determined as 73%. Besides, the IC50 at human STAT6/pIL-4Rα stood at 250 nM.

As to `CCn1c(-c2ccc(-n3c(C)nn(C)c3=O)cc2)cc2ccnc(C(=O)Nc3cccc(C(=O)Nc4cc(Cl)n(C)n4)c3)c21` [Ex. 198], the inhibition at 0.1 µM in the experiment on human STAT6 amounted to 96%. Further, the IC50 on human STAT6/pIL-4Rα stood at 410 nM.

Turning to `Cc1nn(C)c(=O)n1-c1ccc(-c2cc3ccnc(C(=O)Nc4cccc(C(=O)Nc5cccn(C)c5=O)c4)c3n2CC2CC2)cc1` [Ex. 199], the inhibition at 0.1 µM with human STAT6 came out at 67%. Also, at human STAT6/pIL-4Rα, the IC50 came out at 270 nM.

For the compound `Cc1nn(C)c(=O)n1-c1ccc(-c2cc3ccnc(C(=O)Nc4cccc(C(=O)Nc5cccn(C)c5=O)c4)c3n2CC2(C#N)CC2)cc1` [Ex. 200], in the experiment with human STAT6, the inhibition at 0.1 µM amounted to 53% and the inhibition at 1 µM was 99%. The IC50 on human STAT6/pIL-4Rα was determined as 230 nM.

For the compound `CCn1c(-c2ccc(-n3c(C)nn(C)c3=O)cc2)cc2ccnc(C(=O)Nc3cccc(C(=O)Nc4ccn(C)n4)c3)c21` [Ex. 201], the inhibition at 0.1 µM in the experiment on human STAT6 is 99%. The compound also yielded an IC50 at human STAT6/pIL-4Rα of 310 nM.

For `COCCn1c(-c2ccc(-n3c(C)nn(C)c3=O)cc2)cc2ccnc(C(=O)Nc3cccc(C(=O)Nc4cc(Cl)n(C)n4)c3)c21` [Ex. 202], the inhibition at 0.1 µM in the experiment with human STAT6 came to 95%. The compound further displayed an IC50 on human STAT6/pIL-4Rα of 340 nM.

With `CCn1c(-c2ccc(-n3c(C)nn(C)c3=O)cc2)cc2cncc(C(=O)Nc3ccc(F)c(C(N)=O)c3)c21` [Ex. 216], in the experiment on human STAT6, the inhibition at 0.1 µM amounted to 7% and the inhibition at 1 µM came to 42%. The IC50 at human STAT6/pIL-4Rα was determined as 430 nM.

On to `CCn1c(-c2ccc(N3C(=O)C(C)CC3C)cc2)nc2cc(C(F)(F)F)cc(C(=O)Nc3cccc(C(N)=O)c3F)c21` (stereo not drawn) [Ex. 218], for which, in the experiment with human STAT6, the inhibition at 0.1 µM is 38% and the inhibition at 1 µM turned out to be 89%. On human STAT6/pIL-4Rα, the IC50 was determined as 680 nM.
